Measurements: US11191765B2, “Heterocyclic compounds for the inhibition of PASK” (BioEnergenix LLC, priority 2012, dated 2021)

Each compound was assayed against PASK (Invitrogen) (Homo sapiens (Human), UniProt Q96RG2) (assay: PAS Kinase FRET Assay). Settings: TR-FRET (665 nm/615 nm), Ulight-peptide substrate, 2 hours at 25° C.; read-out: IC50 Kinase Domain.
Assay type: biochemical
Text: The aim of the FRET assay is to determine the inhibition potential of test compounds on targeted kinase. This assay platform provides a homogenous screening method for measuring kinase activity by quantitating the amount of phospho-substrate in solution following a kinase reaction.
In the presence of kinase and ATP, the Ulight-peptide is phosphorylated and captured by an anti-phospho-substrate antibody, which brings the Eu chelate donor and Ulight acceptor dyes into close proximity. Upon excitation at 340 nm, the Eu chelate transfers its energy to the Ulight dye, resulting in a fluorescent light emission at 665 nm.
Titration of kinase at 1 mM ATP was achieved via the following protocol. After making serial three-fold dilutions of PASK (Invitrogen) in reaction buffer across the plate; 5 μl of kinase dilution and 5 μl substrate/ATP mix were added to the wells of the white Optiplate-384 (PerkinElmer). The contents of the plate were and incubated at RT for 1 h. The reaction was stopped by adding 5 μl of stop solution to each test well followed by mixing and incubation at RT for 10 minutes. 5 μl of detection mix (detection antibody diluted in detection buffer) was added; the contents of the plate were mixed and then incubated in the dark for 1 hour at RT. The signal was recorded at TR-FRET mode (665 nm/615 nm). The results were graphed to calculate the EC50.
Titration of ATP at the EC50 concentration of kinase to determine ATP Km,app. was performed using the following method. After making serial dilutions of ATP (Invitrogen), 5 μl of ATP dilution and 5 μl substrate/kinase mix were added to the wells of the white Optiplate-384 (PerkinElmer). The contents of the plate were and incubated at RT for 1 h. The reaction was stopped by adding 5 μl of stop solution to each test well followed by mixing and incubation at RT for 10 minutes. 5 μl of detection mix (detection antibody diluted in detection buffer) was added; the contents of the plate were mixed and then incubated in the dark for 1 hour at RT. The signal was recorded at TR-FRET mode (665 nm/615 nm). The results were graphed to calculate the EC50 as the ATP Km,app.
Compound screening was done via the following method. 10 mM stock solution of test compound in DMSO was prepared by dissolving test compound in DMSO at RT for 1 hour, and then sonicating at 100% output for 8 minutes. If compound is not soluble under this condition, it was diluted to 3 mM. Kinase reaction buffer was prepared containing 10 mM MgCl2, 50 mM HEPES, 1 mM EGTA, 0.01% TWEEN-20, 2 mM DTT. Serial dilutions of the test compounds were prepared at 4×final assay concentrations using Freedom EVO200® dispensing system as follows: 12×10^−5 M, 4×10^−5 M, 1.33×10^−5 M, 4.44×10^−6 M, 1.48×10^−6 M, 4.92×10^−7 M, 1.65×10^−7 M, 5.48×10^−7 M, 1.82×10^−8 M, 6.09×10^−9, 2.03×10^−9 M. Test compounds (2.5 μl at 4×the final assay concentration) was added to wells using Freedom EVO200® dispensing system. As a positive control, 2.5 μl of positive compound was added to assay wells, and 2.5 μl of DMSO to assay wells as vehicle control. Kinase solution was prepared in reaction buffer at 2×final assay concentration. Kinase solution (5 μl) was added to each well of the assay plate. The substrate and ATP solution was prepared in kinase reaction buffer at 4×final assay concentration. The kinase reaction was started by adding 2.5 μl of substrate+ATP mix solution to each well of the assay plate. The plate is mixed on a plate shaker; then covered and allowed to react for 2 hours in the dark at 25° C. without shaking. The reaction was stopped by adding 5 μl of stop solution to each test well followed by mixing and incubation at RT for 10 minutes in the dark. 5 μl of detection mix (detection antibody diluted in detection buffer) was added; the contents of the plate were mixed and then incubated in the dark for 1 hour at RT. The signal was recorded at TR-FRET mode (665 nm/615 nm).

Chain of PASK (Invitrogen) (Q96RG2 999-1251): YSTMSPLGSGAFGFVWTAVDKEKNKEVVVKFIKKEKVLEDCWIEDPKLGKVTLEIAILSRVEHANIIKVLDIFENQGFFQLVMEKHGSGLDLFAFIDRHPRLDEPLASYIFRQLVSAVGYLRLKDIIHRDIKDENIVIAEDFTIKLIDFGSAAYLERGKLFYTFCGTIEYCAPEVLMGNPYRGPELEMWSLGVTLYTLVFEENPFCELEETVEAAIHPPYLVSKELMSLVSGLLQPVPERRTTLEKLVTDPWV

IC50, ≤ 10 µM:
O=c1cc(-c2ccc3[nH]ncc3c2)[nH]c2nc(-c3ccc(Cl)cc3)nn12 [Example 44, 2-(4-Chlorophenyl)-5-(1H-indazol-5-yl)-[1,2,4]triazolo[1,5-a]pyrimidin-7(4H)-one]
O=c1cc(-c2ccc3[nH]nnc3c2)[nH]c2nc(Cc3ccccc3)nn12 [Example 45, 5-(1H-Benzo[d][1,2,3]triazol-5-yl)-2-benzyl-[1,2,4]triazolo[1,5-a]pyrimidin-7(4H)-one]
Cc1nc2[nH]c(-c3ccc4c(c3)OCCO4)cc(=O)n2n1 [Example 16, 5-(2,3-Dihydrobenzo[b][1,4]dioxin-6-yl)-2-methyl-[1,2,4]triazolo[1,5-a]pyrimidin-7(4H)-one]
Cc1nc2[nH]c(-c3ccc4[nH]nnc4c3)cc(=O)n2n1 [Example 43, 5-(1H-Benzo[d][1,2,3]triazol-5-yl)-2-methyl-[1,2,4]triazolo[1,5-a]pyrimidin-7(4H)-one]
O=c1cc(-c2ccc3[nH]nnc3c2)[nH]c2nc(-c3ccc(Cl)cc3)nn12 [Example 39, 5-(1H-Benzo[d][1,2,3]triazol-5-yl)-2-(4-chlorophenyl)-[1,2,4]triazolo[1,5-a]pyrimidin-7(4H)-one]
O=c1cc(-c2ccc3c(c2)OCCO3)[nH]c2ncnn12 [Example 17, 5-(2,3-Dihydrobenzo[b][1,4]dioxin-6-yl)-[1,2,4]triazolo[1,5-a]pyrimidin-7(4H)-one]
CC(C)c1nc2[nH]c(-c3ccc4[nH]nnc4c3)cc(=O)n2n1 [Example 14, 5-(1H-Benzo[d][1,2,3]triazol-5-yl)-2-isopropyl-[1,2,4]triazolo[1,5-a]pyrimidin-7(4H)-one]
O=c1cc(-c2ccc3nn[nH]c3c2)[nH]c2nc(-c3ccccc3Cl)nn12 [Example 22, 5-(1H-Benzo[d][1,2,3]triazol-6-yl)-2-(2-chlorophenyl)-[1,2,4]triazolo[1,5-a]pyrimidin-7(4H)-one]
O=c1cc(-c2ccc3[nH]ncc3c2)[nH]c2nc(-c3ccc(F)cc3)nn12 [Example 20, 2-(4-Fluorophenyl)-5-(1H-indazol-5-yl)-[1,2,4]triazolo[1,5-a]pyrimidin-7(4H)-one]
O=c1cc(-c2ccc3c(c2)OCCO3)[nH]c2nc(-c3ccccn3)nn12 [Example 28, 5-(2,3-Dihydrobenzo[b][1,4]dioxin-6-yl)-2-(pyridin-2-yl)-[1,2,4]triazolo[1,5-a]pyrimidin-7(4H)-one]
O=c1cc(-c2ccc3[nH]ncc3c2)[nH]c2nc(-c3ccc(Cl)c(Cl)c3)nn12 [Example 10, 2-(3,4-Dichlorophenyl)-5-(1H-indazol-5-yl)-[1,2,4]triazolo[1,5-a]pyrimidin-7(4H)-one]
CCn1ncc2cc(-c3cc(=O)n4nc(-c5ccc(Cl)cc5)nc4[nH]3)ccc21 [Example 42, 2-(4-Chlorophenyl)-5-(1-ethyl-1H-indazol-5-yl)-[1,2,4]triazolo[1,5-a]pyrimidin-7(4H)-one]
CCn1ncc2cc(-c3cc(=O)n4nc(-c5ccc(F)cc5)nc4[nH]3)ccc21 [Example 21, 5-(1-Ethyl-1H-indazol-5-yl)-2-(4-fluorophenyl)-[1,2,4]triazolo[1,5-a]pyrimidin-7(4H)-one]
O=c1cc(-c2ccc3c(c2)OCCO3)[nH]c2nc(Cc3ccccc3)nn12 [Example 18, 2-Benzyl-5-(2,3-dihydrobenzo[b][1,4]dioxin-6-yl)-[1,2,4]triazolo[1,5-a]pyrimidin-7(4H)-one]
O=c1cc(-c2ccc3c(c2)OCO3)[nH]c2nc(-c3ccccn3)nn12 [Example 29, 5-(Benzo[d][1,3]dioxol-5-yl)-2-(pyridin-2-yl)-[1,2,4]triazolo[1,5-a]pyrimidin-7(4H)-one]
COc1ccc(-c2cc(=O)n3ncnc3[nH]2)cc1 [Example 26, 5-(4-Methoxyphenyl)-[1,2,4]triazolo[1,5-a]pyrimidin-7(4H)-one]
Cc1ccccc1-c1nc2[nH]c(-c3ccc4nn[nH]c4c3)cc(=O)n2n1 [Example 23, 5-(1H-benzo[d][1,2,3]triazol-6-yl)-2-o-tolyl-[1,2,4]triazolo[1,5-a]pyrimidin-7(4H)-one]
CCc1nc2[nH]c(-c3ccc4[nH]nnc4c3)cc(=O)n2n1 [Example 6, 5-(1H-Benzo[d][1,2,3]triazol-5-yl)-2-ethyl-[1,2,4]triazolo[1,5-a]pyrimidin-7(4H)-one]
O=c1cc(-c2ccc3[nH]ncc3c2)[nH]c2nc(-c3cccc(Cl)c3)nn12 [Example 12, 2-(3-Chlorophenyl)-5-(1H-indazol-5-yl)-[1,2,4]triazolo[1,5-a]pyrimidin-7(4H)-one]
CCc1nc2[nH]c(-c3ccc4[nH]ncc4c3)cc(=O)n2n1 [Example 5, 2-Ethyl-5-(1H-indazol-5-yl)-[1,2,4]triazolo[1,5-a]pyrimidin-7(4H)-one]
O=c1cc(-c2ccc3[nH]nnc3c2)[nH]c2nc(-c3ccccc3)nn12 [Example 41, 5-(1H-Benzo[d][1,2,3]triazol-5-yl)-2-phenyl-[1,2,4]triazolo[1,5-a]pyrimidin-7(4H)-one]
Cc1nc2[nH]c(-c3ccc4[nH]ncc4c3)cc(=O)n2n1 [Example 4, 5-(1H-indazol-5-yl)-2-methyl-[1,2,4]triazolo[1,5-a]pyrimidin-7(4H)-one]
O=c1cc(-c2ccc3c(c2)OCO3)[nH]c2nc(Cc3ccccc3)nn12 [Example 1, 5-(Benzo[d][1,3]dioxol-5-yl)-2-benzyl-[1,2,4]triazolo[1,5-a]pyrimidin-7(4H)-one]
COc1ccc(-c2cc(=O)n3nc(C)nc3[nH]2)cc1 [Example 27, 5-(4-Methoxyphenyl)-2-methyl-[1,2,4]triazolo[1,5-a]pyrimidin-7(4H)-one]
NC(=O)c1nc2[nH]c(-c3ccc4nn[nH]c4c3)cc(=O)n2n1 [Example 24, 5-(1H-benzo[d][1,2,3]triazol-6-yl)-7-oxo-4,7-dihydro-[1,2,4]triazolo[1,5-a]pyrimidine-2-carboxamide]
CCn1ncc2cc(-c3cc(=O)n4nc(-c5ccccc5Cl)nc4[nH]3)ccc21 [Example 25, 2-(2-chlorophenyl)-5-(1-ethyl-1H-indazol-5-yl)-[1,2,4]triazolo[1,5-a]pyrimidin-7(4H)-one]
COc1ccc(-c2cc(=O)n3nc(Cc4ccccc4)nc3[nH]2)cc1 [Example 19, 2-Benzyl-5-(4-methoxyphenyl)-[1,2,4]triazolo[1,5-a]pyrimidin-7(4H)-one]
O=c1cc(-c2ccc3[nH]ncc3c2)[nH]c2nc(-c3ccccn3)nn12 [Example 3, 5-(1H-Indazol-5-yl)-2-(pyridin-2-yl)-[1,2,4]triazolo[1,5-a]pyrimidin-7(4H)-one]
O=c1cc(-c2ccc3[nH]nnc3c2)[nH]c2nc(-c3cccc(Cl)c3)nn12 [Example 13, 5-(1H-Benzo[d][1,2,3]triazol-5-yl)-2-(3-chlorophenyl)-[1,2,4]triazolo[1,5-a]pyrimidin-7(4H)-one]
